Results reported in ChEMBL document CHEMBL5543078, “Peptidomimetics as potent dual SARS-CoV-2 cathepsin-L and main protease inhibitors: In silico design, synthesis and pharmacological characterization” (Eur J Med Chem, 2024).
Active and inactive are the calls of the source. The calls are words filed in the database; no cut-off is given here. Non-standard residues stand in square brackets, D forms with d. Residues, ends and D or L forms follow the SMILES beside them. *: point of attachment. AllylGly = C=CC[C@H](N)C(=O)O; Acryloyl = C=CC(=O)*; NHBn = c1ccc(CN*)cc1; ClAc = O=C(CCl)*

Columns and labels:
[1] = test system: SARS-CoV-2; assay: microbe, parasite or virus in culture; conditions: Severe acute respiratory syndrome coronavirus 2, Wuhan/WIV04/2020, Vero
Description: Antiviral activity against SARS-CoV-2 Wuhan/WIV04/2020 infected in African green monkey Vero cells assessed as reduction in virus-induced cytopathic effect incubated for 6 to 7 days by microscopic analysis

[2] = test system: Human coronavirus OC43; format: functional, organism-based
[3] = Cytotoxicity against African green monkey Vero cells assessed as change in cell morphology by measuring minimum cytotoxic concentration by microscopic analysis; format: toxicity, cell-based; conditions: chlorocebus sabaeus
[4] = test system: Human coronavirus 229E; format: functional, organism-based
[5] = biological target: Replicase polyprotein 1ab (Severe acute respiratory syndrome coronavirus 2, UniProt P0DTD1); assay: Inhibition of recombinant SARS-CoV-2 main protease using DABCYL-KTSAVLQSGFRKME-EDANS as fluorescent substrate preincubated for 30 mins followed by substrate addition by FRET assay
[6] = test system: SARS-CoV-2; assay: microbe, parasite or virus in culture; conditions: Severe acute respiratory syndrome coronavirus 2, NVDBB-2220 (Alpha), Vero
Description: Antiviral activity against SARS-CoV-2 NVDBB-2220 (Alpha) infected in African green monkey Vero cells assessed as reduction in virus-induced cytopathic effect incubated for 6 to 7 days by microscopic analysis

[7] = test system: SARS-CoV-2; assay: microbe, parasite or virus in culture; conditions: Severe acute respiratory syndrome coronavirus 2, 860-J1 (Delta), Vero
Description: Antiviral activity against SARS-CoV-2 860-J1 (Delta) infected in African green monkey Vero cells assessed as reduction in virus-induced cytopathic effect incubated for 6 to 7 days by microscopic analysis

[8] = test system: SARS-CoV-2; assay: microbe, parasite or virus in culture; conditions: Severe acute respiratory syndrome coronavirus 2, Omicron B1.1.529, Vero
Description: Antiviral activity against SARS-CoV-2 Omicron B1.1.529 infected in African green monkey Vero cells assessed as reduction in virus-induced cytopathic effect incubated for 6 to 7 days by microscopic analysis

[9] = Stability in simulated gastric fluid assessed as parent compound remaining incubated upto 120 mins by LC-MS analysis; format: ADME; conditions: read-out: Stability
[10] = Metabolic stability in human liver microsomes assessed as half life incubated upto 60 mins in presence of NADPH by LC-MS analysis; format: ADME, Microsome
[11] = Metabolic stability in human liver microsomes assessed as half life incubated upto 60 mins in presence of NADPH and UDPGA by LC-MS analysis; format: ADME, Microsome
[12] = Stability in simulated intestinal fluid assessed as parent compound remaining incubated upto 120 mins by LC-MS analysis; format: ADME; conditions: read-out: Stability
[13] = Metabolic stability in human liver microsomes assessed as intrinsic clearance incubated upto 60 mins in presence of NADPH by LC-MS analysis; format: ADME, Microsome; conditions: read-out: CLH
[14] = biological target: Procathepsin L (Homo sapiens, UniProt P07711); assay: Inhibition of Cathepsin L (unknown origin) using Z-Leu-Arg-AMC fluorometric dipeptide as substrate peincubated for 10 mins followed by substrate addition by fluorescence based assay
Chain of Procathepsin L (P07711 whole entry): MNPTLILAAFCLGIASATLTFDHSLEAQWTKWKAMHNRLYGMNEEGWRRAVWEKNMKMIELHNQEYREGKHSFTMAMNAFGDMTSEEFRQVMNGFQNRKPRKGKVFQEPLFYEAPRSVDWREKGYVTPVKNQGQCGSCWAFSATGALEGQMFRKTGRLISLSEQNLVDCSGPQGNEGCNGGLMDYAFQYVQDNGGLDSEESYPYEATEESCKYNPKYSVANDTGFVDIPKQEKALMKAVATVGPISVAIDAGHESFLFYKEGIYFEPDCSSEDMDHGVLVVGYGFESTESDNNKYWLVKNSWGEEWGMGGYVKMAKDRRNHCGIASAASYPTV

## C=CC[C@H](NC(=O)CCl)C(=O)N[C@@H](CC=C)C(=O)N[C@H](CNCc1ccccc1)Cc1c[nH]c2ccccc12
[1]
  EC50: 4.29 µM
[2]
  Activity: Active
[3]
  MCC: > 100 µM
[4]
  Activity: Active
[5]
  IC50: > 30 µM
[6]
  EC50: 2.53 µM
[7]
  EC50: 18.1 µM
[8]
  EC50: 15.2 µM

## O=C(CS)N[C@@H](Cc1ccccc1)C(=O)N[C@@H](Cc1c[nH]c2ccccc12)C(=O)NCc1ccccc1
[1]
  EC50: > 100 µM
[2]
  Activity: Active
[3]
  MCC: > 100 µM
[4]
  Activity: Active
[5]
  IC50: > 30 µM
[6]
  EC50: > 100 µM
[7]
  EC50: > 100 µM
[8]
  EC50: > 100 µM

## C=CC[C@H](NC(=O)CCl)C(=O)N[C@@H](Cc1c[nH]c2ccccc12)C(=O)NCCN1CCOCC1
[1]
  EC50: 10.3 µM
[2]
  Activity: Active
[3]
  MCC: > 100 µM
[4]
  Activity: Active
[5]
  IC50: > 30 µM
[6]
  EC50: 10.7 µM
[7]
  EC50: 29.2 µM
[8]
  EC50: 13.5 µM

## CC(C)C[C@H](NC(=O)CCl)C(=O)N[C@H](Cc1c[nH]c2ccccc12)C(=O)NCc1ccccc1
[1]
  EC50: 8.71 µM
[2]
  Activity: Active
[3]
  MCC: > 100 µM
[4]
  Activity: Active
[5]
  IC50: 14.6 µM
[6]
  EC50: > 20 µM
[7]
  EC50: > 20 µM
[8]
  EC50: > 20 µM

## CC(C)C[C@@H](C(=O)NCC12CC3CC(CC(C3)C1)C2)N(Cc1ccccc1)C(=O)CCl
[1]
  EC50: > 4 µM
[2]
  Activity: Active
[3]
  MCC: 19 µM
[4]
  Activity: Active
[5]
  IC50: > 30 µM
[6]
  EC50: > 4 µM
[7]
  EC50: > 4 µM
[8]
  EC50: > 4 µM

## CC(C)C[C@H](NC(=O)CCl)C(=O)N[C@@H](Cc1c[nH]c2ccccc12)C(=O)NCc1ccccc1
[1]
  EC50: 0.27 µM
[2]
  Activity: Active
[9]
  remaining at 2 h: > 80%
[3]
  MCC: > 100 µM
[4]
  Activity: Active
[5]
  IC50: 2.81 µM
[10]
  half-life: 29.7 min
[6]
  EC50: 0.32 µM
[7]
  EC50: 1.2 µM
[11]
  half-life: 21.1 min
[8]
  EC50: 1.28 µM
[12]
  remaining at 2 h: > 80%
[13]
  CLint scaled: > 45 mL/min/kg

## C=CC(=O)N[C@@H](CC(C)C)C(=O)N[C@@H](Cc1c[nH]c2ccccc12)C(=O)NCc1ccccc1
[1]
  EC50: > 100 µM
[2]
  Activity: Active
[3]
  MCC: > 100 µM
[4]
  Activity: Active
[5]
  IC50: > 30 µM
[6]
  EC50: > 100 µM
[7]
  EC50: > 100 µM
[8]
  EC50: > 100 µM

## CCN(CC)CCCC(C)Nc1ccnc2cc(Cl)ccc12 (stereo not given)
[2]
  Activity: Active
[4]
  Activity: Active

## NC(=O)c1ncn([C@@H]2O[C@H](CO)[C@@H](O)[C@H]2O)n1
[2]
  Activity: Active
[4]
  Activity: Active

## C=CC(=O)N[C@@H](Cc1ccccc1)C(=O)N[C@@H](Cc1c[nH]c2ccccc12)C(=O)NCc1ccccc1 (Acryloyl-Phe-Trp-NHBn)
[1]
  EC50: > 20 µM
[2]
  Activity: Active
[3]
  MCC: > 100 µM
[4]
  Activity: Active
[5]
  IC50: > 30 µM
[6]
  EC50: > 20 µM
[7]
  EC50: > 20 µM
[14]
  IC50: > 30 µM
[8]
  EC50: > 20 µM

## O=C(CCl)NCC(=O)N[C@@H](Cc1c[nH]c2ccccc12)C(=O)NCc1ccccc1 (ClAc-Gly-Trp-NHBn)
[1]
  EC50: 0.16 µM
[2]
  Activity: Active
[9]
  remaining at 2 h: > 80%
[3]
  MCC: > 100 µM
[4]
  Activity: Active
[5]
  IC50: > 30 µM
[10]
  half-life: 346 min
[6]
  EC50: 0.3 µM
[7]
  EC50: 0.54 µM
[11]
  half-life: 122 min
[8]
  EC50: 0.81 µM
[12]
  remaining at 2 h: > 80%
[13]
  CLint scaled: < 15 mL/min/kg

## CC(C)C[C@H](NC(=O)CCl)C(=O)N[C@@H](Cc1ccccc1)C(=O)N[C@@H](Cc1c[nH]c2ccccc12)C(=O)NCc1ccccc1 (ClAc-Leu-Phe-Trp-NHBn)
[1]
  EC50: 4.81 µM
[2]
  Activity: Active
[3]
  MCC: > 100 µM
[4]
  Activity: Active
[5]
  IC50: > 30 µM
[6]
  EC50: > 20 µM
[7]
  EC50: > 20 µM
[8]
  EC50: > 100 µM

## COC(=O)[C@H](CCC(N)=O)NC(=O)[C@H](Cc1c[nH]c2ccccc12)NC(=O)[C@H](CC(C)C)NC(=O)CCl (ClAc-Leu-Trp-Gln-OMe)
[1]
  EC50: > 100 µM
[2]
  Activity: Active
[3]
  MCC: > 100 µM
[4]
  Activity: Active
[5]
  IC50: > 30 µM
[6]
  EC50: > 100 µM
[7]
  EC50: > 100 µM
[8]
  EC50: > 100 µM

## O=C(CCl)N[C@@H](Cc1ccccc1)C(=O)N[C@@H](Cc1c[nH]c2ccccc12)C(=O)NCc1ccccc1 (ClAc-Phe-Trp-NHBn)
[1]
  EC50: 0.09 µM
[2]
  Activity: Active
[9]
  remaining at 2 h: > 80%
[3]
  MCC: > 100 µM
[4]
  Activity: Active
[5]
  IC50: 0.73 µM
[10]
  half-life: 38.3 min
[6]
  EC50: 0.68 µM
[7]
  EC50: 1.3 µM
[11]
  half-life: 19.6 min
[8]
  EC50: 1.34 µM
[12]
  remaining at 2 h: > 80%
[13]
  CLint scaled: > 45 mL/min/kg

## COC(=O)[C@H](CC(C)C)NC(=O)[C@H](Cc1c[nH]c2ccccc12)NC(=O)CCl (ClAc-Trp-Leu-OMe)
[1]
  EC50: > 4 µM
[2]
  Activity: Active
[3]
  MCC: 21 µM
[4]
  Activity: Active
[5]
  IC50: > 30 µM
[6]
  EC50: > 20 µM
[7]
  EC50: > 20 µM
[8]
  EC50: > 4 µM

## O=C(CCl)N[C@@H](Cc1ccc(O)cc1)C(=O)N[C@@H](Cc1c[nH]c2ccccc12)C(=O)NCc1ccccc1 (ClAc-Tyr-Trp-NHBn)
[1]
  EC50: 2.37 µM
[2]
  Activity: inactive
[3]
  MCC: > 100 µM
[4]
  Activity: inactive
[5]
  IC50: 8.35 µM
[6]
  EC50: 3.46 µM
[7]
  EC50: 12.3 µM
[8]
  EC50: 5.04 µM

## C=CC[C@H](NC(=O)CCl)C(=O)N[C@@H](Cc1c[nH]c2ccccc12)C(=O)NCc1ccccc1 (ClAc-[AllylGly]-Trp-NHBn)
[1]
  EC50: 0.49 µM
[2]
  Activity: Active
[3]
  MCC: > 100 µM
[4]
  Activity: Active
[5]
  IC50: 1.72 µM
[6]
  EC50: 1.16 µM
[7]
  EC50: 2.12 µM
[8]
  EC50: 5.87 µM

## CCOC(=O)[C@H]1O[C@@H]1C(=O)N[C@@H](CC(C)C)C(=O)NCCC(C)C [ALOXISTATIN]
[2]
  Activity: Active
[4]
  Activity: Active
[14]
  IC50: 0.034 µM

## CC(C)C(=O)OC[C@H]1O[C@@H](n2ccc(NO)nc2=O)[C@H](O)[C@@H]1O [MOLNUPIRAVIR]
[1]
  EC50: 4.31 µM
[3]
  MCC: > 100 µM
[6]
  EC50: 5.44 µM
[7]
  EC50: 6.04 µM
[8]
  EC50: 1.22 µM

## CCC(CC)COC(=O)[C@H](C)N[P@](=O)(OC[C@H]1O[C@@](C#N)(c2ccc3c(N)ncnn23)[C@H](O)[C@@H]1O)Oc1ccccc1 [REMDESIVIR]
[1]
  EC50: 3.74 µM
[2]
  Activity: Active
[3]
  MCC: > 40 µM
[4]
  Activity: Active
[6]
  EC50: 2.93 µM
[7]
  EC50: 3.74 µM
[8]
  EC50: 0.83 µM
